Assays:
Test in all cases: Post-emergence test on weeds (greenhouse, spray at 2-3 leaf stage)
Type in all cases: in vivo
Design in all cases: key: Level 10: completely dead; Level 9: growth control rate greater than or equal to 90% and less than 100%; Level 8: growth control rate greater than or equal to 80% and less than 90%; Level 7: growth control rate greater than or equal to 70% and less than 80%; Level 6: growth control rate greater than or equal to 60% and less than 70%; Level 5: growth control rate greater than or equal to 50% and less than 60%; Level 4: growth control rate greater than or equal to 40% and less than 50%; Level 3: growth control rate greater than or equal to 30% and less than 40%; Level 2: growth control rate greater than or equal to 20% and less than 30%; Level 1: growth control rate less than 20%; Level 0: no effect
Details in all cases: 3 weeks after application
Echinochloa crus-galli = system: Echinochloa crus-galli
Description: (§1) The activity level criteria for plant damage (i.e., growth control rate) are as follows: • Level 10: completely dead; • Level 9: growth control rate greater than or equal to 90% and less than 100%; • Level 8: growth control rate greater than or equal to 80% and less than 90%; • Level 7: growth control rate greater than or equal to 70% and less than 80%; • Level 6: growth control rate greater than or equal to 60% and less than 70%; • Level 5: growth control rate greater than or equal to 50% and less than 60%; • Level 4: growth control rate greater than or equal to 40% and less than 50%; • Level 3: growth control rate greater than or equal to 30% and less than 40%; • Level 2: growth control rate greater than or equal to 20% and less than 30%; • Level 1: growth control rate less than 20%; • Level 0: no effect.
(§2) The above growth control rates are fresh weight control rates.
(§3) Monocotyledonous and dicotyledonous weed seeds (Descurainia sophia, Capsella bursa-pastoris, Abutilon theophrasti, Galium spurium, Stellaria media, Lithospermum arvense, Rorippa indica, Alopecurus aequalis, Alopecurus japonicus, Eleusine indica, Beckmannia syzigachne, Sclerochloa dura, Erigeron canadensis, Phleum paniculatum, Veronica polita, Bromus japonicus, Aegilops tauschii, Phalaris arundinacea, Amaranthus retrofexus, Chenopodium, Commelina communis, Cichorium endivia, Convolvulus arvensis, Cirsium arvense, Solanum nigrum, Acalypha australis, Digitaria sanguinalis, Echinochloa crus-galli, Setaria viridis, Setaa pumila, Lepochloa chinensis, Monochona vaginalis, Sagitta trifolia, Schoenoplectiella juncoides, Cypenus rotundus, Cyperus ira, Cyperus difformis, Fimbristylis, Portulaca oleracea, Xanthium sibiricum, Ipomoea nil, Eschenbachia japonica, etc.) and major crop seeds (wheat, maize, paddy rice, soybean, cotton, oilseed rape, millet, sorghum, potato, sesame, castor plant, etc.) were placed in plastic pots filled with soil and then covered with 0.5-2 cm of soil to allow them to grow in a favorable greenhouse environment. Two weeks after sowing, the test plants were treated at the stage of 2-3 leaves. The test compounds of the present invention were individually dissolved with acetone, then added with Tween® 80, with 1.5 L/ha of methyl oleate emulsifiable concentrate as a synergist, diluted into solutions of certain concentrations using certain amount of water, and sprayed to the plants using a spray tower. After drug application, the experimental results on weeds were collected after 3 weeks of cultivation in a greenhouse. The compounds were applied at 500, 250, […], 15, and 7.5 g a.i./ha in triplicate, and the results were averaged.

Veronica polita = system: Veronica polita
Description: as §1, §2, §3

Abutilon theophrasti = system: Abutilon theophrasti
Description: as §1, §2, §3

Setaria viridis = system: Setaria viridis
Description: as §1, §2, §3

Amaranthus retroflexus = system: Amaranthus retroflexus
Description: as §1, §2, §3

Digitaria sanguinalis = system: Digitaria sanguinalis
Description: as §1, §2, §3

COC(=O)C1(C)ON=C(c2cc(-c3ncc(OC(F)F)cc3Cl)c(F)cc2Cl)O1 (stereo not drawn) [Compound 3]
10: activity level (fresh weight growth control rate), Echinochloa crus-galli (Echinochloa crus-galli; 60 g a.i./ha) | activity level (fresh weight growth control rate), Veronica polita (Veronica polita; 60 g a.i./ha) | activity level (fresh weight growth control rate), Abutilon theophrasti (Abutilon theophrasti; 60 g a.i./ha) | activity level (fresh weight growth control rate), Setaria viridis (Setaria viridis; 60 g a.i./ha) | activity level (fresh weight growth control rate), Amaranthus retroflexus (Amaranthus retroflexus; 60 g a.i./ha) | activity level (fresh weight growth control rate), Digitaria sanguinalis (Digitaria sanguinalis; 60 g a.i./ha)

COC(=O)C1(C)ON=C(c2cc(-c3ncc(C(F)(F)F)c(F)c3F)c(F)cc2Cl)O1 (stereo not drawn) [Compound 4]
10: activity level (fresh weight growth control rate), Echinochloa crus-galli (Echinochloa crus-galli; 60 g a.i./ha) | activity level (fresh weight growth control rate), Veronica polita (Veronica polita; 60 g a.i./ha) | activity level (fresh weight growth control rate), Abutilon theophrasti (Abutilon theophrasti; 60 g a.i./ha) | activity level (fresh weight growth control rate), Setaria viridis (Setaria viridis; 60 g a.i./ha) | activity level (fresh weight growth control rate), Amaranthus retroflexus (Amaranthus retroflexus; 60 g a.i./ha) | activity level (fresh weight growth control rate), Digitaria sanguinalis (Digitaria sanguinalis; 60 g a.i./ha)

COC(=O)C1(C)ON=C(c2cc(-c3ncc(Br)cc3Cl)c(F)cc2Cl)O1 (stereo not drawn) [Compound 5]
10: activity level (fresh weight growth control rate), Echinochloa crus-galli (Echinochloa crus-galli; 60 g a.i./ha) | activity level (fresh weight growth control rate), Veronica polita (Veronica polita; 60 g a.i./ha) | activity level (fresh weight growth control rate), Abutilon theophrasti (Abutilon theophrasti; 60 g a.i./ha) | activity level (fresh weight growth control rate), Setaria viridis (Setaria viridis; 60 g a.i./ha) | activity level (fresh weight growth control rate), Amaranthus retroflexus (Amaranthus retroflexus; 60 g a.i./ha) | activity level (fresh weight growth control rate), Digitaria sanguinalis (Digitaria sanguinalis; 60 g a.i./ha)

COC(=O)C1(C)ON=C(c2cc(-c3ncc(C(F)(F)F)cc3F)c(F)cc2Cl)O1 (stereo not drawn) [Compound 6]
10: activity level (fresh weight growth control rate), Echinochloa crus-galli (Echinochloa crus-galli; 60 g a.i./ha) | activity level (fresh weight growth control rate), Veronica polita (Veronica polita; 60 g a.i./ha) | activity level (fresh weight growth control rate), Abutilon theophrasti (Abutilon theophrasti; 60 g a.i./ha) | activity level (fresh weight growth control rate), Setaria viridis (Setaria viridis; 60 g a.i./ha) | activity level (fresh weight growth control rate), Amaranthus retroflexus (Amaranthus retroflexus; 60 g a.i./ha) | activity level (fresh weight growth control rate), Digitaria sanguinalis (Digitaria sanguinalis; 60 g a.i./ha)

COC(=O)C1(C)ON=C(c2cc(-c3ncc(F)cc3F)c(F)cc2Cl)O1 (stereo not drawn) [Compound 7]
10: activity level (fresh weight growth control rate), Echinochloa crus-galli (Echinochloa crus-galli; 60 g a.i./ha) | activity level (fresh weight growth control rate), Veronica polita (Veronica polita; 60 g a.i./ha) | activity level (fresh weight growth control rate), Abutilon theophrasti (Abutilon theophrasti; 60 g a.i./ha) | activity level (fresh weight growth control rate), Setaria viridis (Setaria viridis; 60 g a.i./ha) | activity level (fresh weight growth control rate), Amaranthus retroflexus (Amaranthus retroflexus; 60 g a.i./ha) | activity level (fresh weight growth control rate), Digitaria sanguinalis (Digitaria sanguinalis; 60 g a.i./ha)

COC(=O)C1(C)ON=C(c2cc(-c3ncccc3Cl)c(F)cc2Cl)O1 (stereo not drawn) [Compound 8]
10: activity level (fresh weight growth control rate), Echinochloa crus-galli (Echinochloa crus-galli; 60 g a.i./ha) | activity level (fresh weight growth control rate), Veronica polita (Veronica polita; 60 g a.i./ha) | activity level (fresh weight growth control rate), Abutilon theophrasti (Abutilon theophrasti; 60 g a.i./ha) | activity level (fresh weight growth control rate), Setaria viridis (Setaria viridis; 60 g a.i./ha) | activity level (fresh weight growth control rate), Amaranthus retroflexus (Amaranthus retroflexus; 60 g a.i./ha) | activity level (fresh weight growth control rate), Digitaria sanguinalis (Digitaria sanguinalis; 60 g a.i./ha)

COC(=O)C1(C)ON=C(c2cc(-c3ncc(C(F)(F)F)cc3Cl)c(F)cc2Br)O1 (stereo not drawn) [Compound 9]
10: activity level (fresh weight growth control rate), Echinochloa crus-galli (Echinochloa crus-galli; 60 g a.i./ha) | activity level (fresh weight growth control rate), Veronica polita (Veronica polita; 60 g a.i./ha) | activity level (fresh weight growth control rate), Abutilon theophrasti (Abutilon theophrasti; 60 g a.i./ha) | activity level (fresh weight growth control rate), Setaria viridis (Setaria viridis; 60 g a.i./ha) | activity level (fresh weight growth control rate), Amaranthus retroflexus (Amaranthus retroflexus; 60 g a.i./ha) | activity level (fresh weight growth control rate), Digitaria sanguinalis (Digitaria sanguinalis; 60 g a.i./ha)

COC(=O)C1(C)ON=C(c2cc(-c3ncc(C(C)(F)F)cc3Cl)c(F)cc2Cl)O1 (stereo not drawn) [Compound 10]
10: activity level (fresh weight growth control rate), Echinochloa crus-galli (Echinochloa crus-galli; 60 g a.i./ha) | activity level (fresh weight growth control rate), Veronica polita (Veronica polita; 60 g a.i./ha) | activity level (fresh weight growth control rate), Abutilon theophrasti (Abutilon theophrasti; 60 g a.i./ha) | activity level (fresh weight growth control rate), Setaria viridis (Setaria viridis; 60 g a.i./ha) | activity level (fresh weight growth control rate), Amaranthus retroflexus (Amaranthus retroflexus; 60 g a.i./ha) | activity level (fresh weight growth control rate), Digitaria sanguinalis (Digitaria sanguinalis; 60 g a.i./ha)

COC(=O)C1(C)ON=C(c2cc(-c3ncc(Cl)cc3Cl)c(F)cc2Cl)O1 (stereo not drawn) [Compound 11]
10: activity level (fresh weight growth control rate), Echinochloa crus-galli (Echinochloa crus-galli; 60 g a.i./ha) | activity level (fresh weight growth control rate), Veronica polita (Veronica polita; 60 g a.i./ha) | activity level (fresh weight growth control rate), Abutilon theophrasti (Abutilon theophrasti; 60 g a.i./ha) | activity level (fresh weight growth control rate), Setaria viridis (Setaria viridis; 60 g a.i./ha) | activity level (fresh weight growth control rate), Amaranthus retroflexus (Amaranthus retroflexus; 60 g a.i./ha) | activity level (fresh weight growth control rate), Digitaria sanguinalis (Digitaria sanguinalis; 60 g a.i./ha)

COC(=O)C1(C)ON=C(c2cc(-c3ncc(C)cc3Cl)c(F)cc2Cl)O1 (stereo not drawn) [Compound 12]
10: activity level (fresh weight growth control rate), Echinochloa crus-galli (Echinochloa crus-galli; 60 g a.i./ha) | activity level (fresh weight growth control rate), Veronica polita (Veronica polita; 60 g a.i./ha) | activity level (fresh weight growth control rate), Abutilon theophrasti (Abutilon theophrasti; 60 g a.i./ha) | activity level (fresh weight growth control rate), Setaria viridis (Setaria viridis; 60 g a.i./ha) | activity level (fresh weight growth control rate), Amaranthus retroflexus (Amaranthus retroflexus; 60 g a.i./ha) | activity level (fresh weight growth control rate), Digitaria sanguinalis (Digitaria sanguinalis; 60 g a.i./ha)

COC(=O)C1(C)ON=C(c2cc(-c3ncc(Cl)cc3F)c(F)cc2Cl)O1 (stereo not drawn) [Compound 13]
10: activity level (fresh weight growth control rate), Echinochloa crus-galli (Echinochloa crus-galli; 60 g a.i./ha) | activity level (fresh weight growth control rate), Veronica polita (Veronica polita; 60 g a.i./ha) | activity level (fresh weight growth control rate), Abutilon theophrasti (Abutilon theophrasti; 60 g a.i./ha) | activity level (fresh weight growth control rate), Setaria viridis (Setaria viridis; 60 g a.i./ha) | activity level (fresh weight growth control rate), Amaranthus retroflexus (Amaranthus retroflexus; 60 g a.i./ha) | activity level (fresh weight growth control rate), Digitaria sanguinalis (Digitaria sanguinalis; 60 g a.i./ha)

COC(=O)C1(C)ON=C(c2cc(-c3ncc(F)cc3Cl)c(F)cc2Cl)O1 (stereo not drawn) [Compound 14]
10: activity level (fresh weight growth control rate), Echinochloa crus-galli (Echinochloa crus-galli; 60 g a.i./ha) | activity level (fresh weight growth control rate), Veronica polita (Veronica polita; 60 g a.i./ha) | activity level (fresh weight growth control rate), Abutilon theophrasti (Abutilon theophrasti; 60 g a.i./ha) | activity level (fresh weight growth control rate), Setaria viridis (Setaria viridis; 60 g a.i./ha) | activity level (fresh weight growth control rate), Amaranthus retroflexus (Amaranthus retroflexus; 60 g a.i./ha) | activity level (fresh weight growth control rate), Digitaria sanguinalis (Digitaria sanguinalis; 60 g a.i./ha)

COC(=O)C1(C)ON=C(c2cc(-c3ncc(C(F)(F)F)cc3Cl)c(F)cc2Cl)O1 (stereo not drawn) [Compound 15]
10: activity level (fresh weight growth control rate), Echinochloa crus-galli (Echinochloa crus-galli; 15 g a.i./ha) | activity level (fresh weight growth control rate), Veronica polita (Veronica polita; 15 g a.i./ha) | activity level (fresh weight growth control rate), Abutilon theophrasti (Abutilon theophrasti; 15 g a.i./ha) | activity level (fresh weight growth control rate), Setaria viridis (Setaria viridis; 15 g a.i./ha) | activity level (fresh weight growth control rate), Amaranthus retroflexus (Amaranthus retroflexus; 15 g a.i./ha) | activity level (fresh weight growth control rate), Digitaria sanguinalis (Digitaria sanguinalis; 15 g a.i./ha)
